Results from patent publication US20230064978A1, “CYCLIC PEPTIDE RECEPTOR LANTHIONINE SYNTHETASE C-LIKE PROTEIN (LANCL) AND USES THEREOF” (LATERAL IP PTY LTD, priority 2019, published 2023).
Bridges are numbered along the chain shown (N, C = ends). Where no end group is shown, it is not given here.

Legend:
DRG neurons = assay: Confocal microscopy of PAL probe binding in DRG cell cultures, spinal nerve ligation model; format: cell-based, Sprague Dawley rats
Excerpt: LAT9991-PAL was used in conjunction with confocal microscopy to visualise the location of potential target(s), noting that analgesic agents can have activity at several sites, either on central or peripheral neurons, or on glial or inflammatory cells that are in proximity to neurons. To identify the cell types to which LAT9991-PAL binds, 3-day cell cultures of DRG from neuropathic or control sites were taken from animals with neuropathy due to spinal nerve ligation. Briefly, L5 and L6 spinal nerves of male Sprague Dawley rats were ligated to create a robust and long-lasting mechanical allodynia of the injured hind paw. Presence of neuropathic pain was confirmed 2 weeks post-spinal nerve ligation surgeries (day 14) using von Frey (VF) filaments (up-and-down method) applied on ipsilateral (injured) and contralateral (non-injured) paw). Live DRG cells were dissected out as described previously and incubated with LAT9991-PAL for 1 hour prior to UV irradiation to fix the binding in situ. […] As a specificity control, the binding of LAT9991-PAL to the neuropathic DRG was blocked in the presence of an excess amount of unlabeled LAT9991 peptide.

[1] = biological target: Recombinant human 6His-LaNCL1 protein (Homo sapiens, UniProt O43813); assay: In-vitro photolabelling of 6His-LanCL1 and LC-MS/MS to identify binding site
Experimental: Recombinant human 6His-LaNCL1 protein (2 μM, 1 nmol, 53 μg) in 530 μL PBS was pre-incubated with 50 μM of LAT8881 or DMSO for 10 min and then treated with 25 μM LAT9991-PAL for another 30 min at RT in Nunc™ MicroWell™ 96-well plates (Thermo Fisher Scientific cat #167008) (final reaction volume, 530 μL). The samples were UV-irradiated (365 nm) for 20 min at 4° C. After UV-irradiation, the samples were split in two different samples containing 3 μg or 50 μg of protein.
Protein samples (3 μg protein) were adjusted to 1% SDS and 10 mM DTT. After incubation for 1 h at 56° C., protein samples were treated with 30 mM iodoacetamide for 45 min at RT in the dark. Dry acetone (9 volumes) prechilled to −20° C. was added and the cloudy mixture was vortexed thoroughly and incubated at −20° C. overnight. After centrifugation (15,000×g for 10 min at 4° C.), the supernatants were poured off and the remaining pellets washed with −20° C. acetone. […] After removing the supernatants, the protein pellets were air-dried and dissolved in laemmli buffer, heated at 60° C. for 20 minutes and analyzed by in gel fluorescence scanning […]
Peptides were analyzed by nanoLC-MS/MS with the Ultimate 3000 RSLC (Thermo Fisher Scientific) coupled online to a Q-Exactive Plus mass spectrometer with a NanoFlex source. […]

Chain of Recombinant human 6His-LaNCL1 protein (O43813 with tags, fused parts or gaps): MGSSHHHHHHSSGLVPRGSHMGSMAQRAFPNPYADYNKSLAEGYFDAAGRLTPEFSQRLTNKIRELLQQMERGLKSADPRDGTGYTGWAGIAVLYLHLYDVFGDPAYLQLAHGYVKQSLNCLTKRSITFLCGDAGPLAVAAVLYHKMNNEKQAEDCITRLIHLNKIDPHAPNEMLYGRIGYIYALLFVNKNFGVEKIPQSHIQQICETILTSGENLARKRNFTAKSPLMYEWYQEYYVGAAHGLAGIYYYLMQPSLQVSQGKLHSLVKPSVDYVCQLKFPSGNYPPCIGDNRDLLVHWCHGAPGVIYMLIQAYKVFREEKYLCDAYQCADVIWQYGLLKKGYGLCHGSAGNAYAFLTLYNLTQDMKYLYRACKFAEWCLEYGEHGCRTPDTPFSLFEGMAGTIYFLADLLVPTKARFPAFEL

Modified LANCL1 peptide sequence differentially detected ([1]; 25 μM probe, dependent peptide MS analysis): IDPHAPNEM(ox)LYGR | Most likely site for localization of the probe adduct on LANCL1 ([1]; amino acid residues 171-174 of human LANCL1 (SEQ ID NO:56)): PNEM
Substance: LAT9991-PAL: cyclic peptide of SEQ ID NO:12 (LAT9991) conjugated to the PAL (Photo-Activated Labelling) grouping (CRSVEGSCG; disulfide 1-8 (inferred); also: PAL group on N-terminal Cys-Arg part)
Subcellular location of the target stained by PAL probe (DRG neurons; high-powered imaging, neurons from neuropathic animals (FIG. 2)): expressed just inside the neuronal cell membrane, and with punctate staining in the cytoplasm | Localisation of PAL probe in DRG cell cultures (DRG neurons; neuropathic vs unaffected DRG, 1 hour incubation before UV irradiation): localised only in neurons from neuropathic DRG and not from unaffected DRG
